The results in this text go back to PubChem BioAssay (NCI).

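Each compound was tested at five concentrations against cells in 96-well plates for 48 hours. GI50 is the concentration that inhibits growth by half. Definition used: TGI = concentration required for complete inhibition of growth.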

One assay has as its system SF-295 CNS. Description: inhibition of tumour cell growth, NCI panel, 48 h.
Consider `CCN(CC)c1ccc(-c2cc(-c3cc(OC)c(OC)c(OC)c3)nc(N3CCOCC3)c2C#N)cc1`, for which the GI50 was 0.809 µM and the TGI turned out to be 3.98 µM.

`C=C(Br)C(C)(Br)CCC(Br)C(C)(C)Cl` (stereo not given) yielded a TGI of 32.7 µM.

In the case of `O=C(CCc1nnc2sc(-c3ccc(Cl)cc3Cl)nn12)c1nc2ncccc2[nH]1`, the GI50 was 1.83 µM and the TGI worked out at 3.44 µM.

`NS(=O)(=O)c1cc(Br)c(N=Nc2ccc(O)c3ncccc23)c(Br)c1` yielded a TGI of more than 100 µM.

`OCc1ccc(-c2ccc(-c3ccc(CO)s3)o2)s1` yielded a TGI of 74.1 µM.

Consider `O=C(Nc1ccc(Cl)cc1)c1cccc(NC2=C(Cl)C(=O)N(Cc3ccccc3)C2=O)c1`, for which the GI50 was 15.5 µM and the TGI came out at 61.9 µM.

Consider `Cc1cc(/C=C/c2ccc3cc(N(C)C)ccc3[n+]2C)c(C)n1-c1ccccc1`, for which the GI50 was 0.11 µM and the TGI stood at 0.409 µM.

Take `CC[C@H](Nc1ncnc2nc[nH]c12)c1oc2ccccc2c(=O)c1-c1cccc(F)c1`: the GI50 is 18.4 µM and the TGI is more than 100 µM.

For `COc1cc(NCc2ccc3oc(=O)c(-c4ccccc4)nc3c2)cc(OC)c1OC`, the TGI was more than 10 µM.

In another assay the test system is UACC-257 melanoma. Description: inhibition of tumour cell growth, NCI panel, 48 h.
Regarding `C[C@@H]1CCC2[C@@H](C)[C@@H](OCC(CO[C@H]3OC4O[C@@]5(C)CC[C@H]6[C@H](C)CCC([C@H]3C)[C@@]46OO5)OC(=O)CCC(=O)O)OC3O[C@@]4(C)CC[C@@H]1[C@]32OO4` (stereo not given in full), the GI50 is 0.708 µM and the TGI was 37.3 µM.

Consider `COc1cc(OC)cc(-c2cc(=O)c3c(OC)c(OC)c(OC)c(OC)c3o2)c1`, for which the TGI was more than 100 µM.

In turn, `COc1cc2c(c(OC)c1OC)-c1ccc(OC)c(=O)cc1C(NC(=O)c1ccc(N=[N+]=[N-])cc1)CC2` (stereo not given) came in with a TGI of more than 100 µM.

With `O=C1OC(O)[C@@H]2[C@H]1[C@H]1CC[C@@H]2O1` (stereo not given in full), the GI50 was more than 87 µM and the TGI was more than 100 µM.

Turning to `COC(=O)C1=C(C)NC(C)=C(C(=O)OCCCN2CCC(c3ccccc3)(c3ccccc3)CC2)C1c1cccc([N+](=O)[O-])c1` (stereo not given), the TGI came out at 3.1 µM.

The compound `N=Nc1c(OC(=O)Nc2cccc(Cl)c2)[nH]c2ccccc12` had a TGI of 26.7 µM.

Consider `Fc1cc2[nH]ncc2c2c3c(c(-c4cn[nH]c4)nc12)CCCC3`, for which the GI50 was 1.72 µM and the TGI came to 5.69 µM.

Take `C=C1C(=O)O[C@H]2[C@H]1CC/C(COC(=O)c1c[nH]c3ccccc13)=C\CC[C@@]1(C)O[C@@H]21`: the GI50 was 0.368 µM and the TGI was found to be 1.49 µM.

In the case of `CCN1CCN(c2nc(C)cc(N(CCNc3ccnc4cc(Cl)ccc34)Cc3ccc4c(c3)OCO4)n2)CC1`, the GI50 was 1.83 µM and the TGI is 3.6 µM.

With `CCN(CC)c1ccc(-c2cc(-c3cc(OC)c(OC)c(OC)c3)nc(N3CCOCC3)c2C#N)cc1`, the GI50 was 2.57 µM and the TGI was more than 100 µM.

`C=C(Br)C(C)(Br)CCC(Br)C(C)(C)Cl` (stereo not given) showed a TGI of 37.4 µM.

For the compound `O=C(CCc1nnc2sc(-c3ccc(Cl)cc3Cl)nn12)c1nc2ncccc2[nH]1`, the GI50 was 3 µM and the TGI turned out to be 9.01 µM.

In turn, `NS(=O)(=O)c1cc(Br)c(N=Nc2ccc(O)c3ncccc23)c(Br)c1` gave a TGI of 67.3 µM.

`OCc1ccc(-c2ccc(-c3ccc(CO)s3)o2)s1` registered a TGI of 0.0669 µM.

As to `O=C(Nc1ccc(Cl)cc1)c1cccc(NC2=C(Cl)C(=O)N(Cc3ccccc3)C2=O)c1`, the GI50 is 15 µM and the TGI was 43.3 µM.

As for `Cc1cc(/C=C/c2ccc3cc(N(C)C)ccc3[n+]2C)c(C)n1-c1ccccc1`, the GI50 is 0.184 µM and the TGI came to 0.951 µM.

With `CC[C@H](Nc1ncnc2nc[nH]c12)c1oc2ccccc2c(=O)c1-c1cccc(F)c1`, the GI50 was 25.7 µM and the TGI was more than 100 µM.

On to `COc1cc(NCc2ccc3oc(=O)c(-c4ccccc4)nc3c2)cc(OC)c1OC`, for which the TGI was more than 10 µM.

The test system of the next assay is TK-10 renal. Description: inhibition of tumour cell growth, NCI panel, 48 h.
With `C[C@@H]1CCC2[C@@H](C)[C@@H](OCC(CO[C@H]3OC4O[C@@]5(C)CC[C@H]6[C@H](C)CCC([C@H]3C)[C@@]46OO5)OC(=O)CCC(=O)O)OC3O[C@@]4(C)CC[C@@H]1[C@]32OO4` (stereo not given in full), the GI50 was less than 0.046 µM and the TGI worked out at 29.5 µM.

Regarding `COc1cc(OC)cc(-c2cc(=O)c3c(OC)c(OC)c(OC)c(OC)c3o2)c1`, the TGI is more than 100 µM.

Compound `COc1cc2c(c(OC)c1OC)-c1ccc(OC)c(=O)cc1C(NC(=O)c1ccc(N=[N+]=[N-])cc1)CC2` (stereo not given) returned a TGI of more than 100 µM.

Consider `O=C1OC(O)[C@@H]2[C@H]1[C@H]1CC[C@@H]2O1` (stereo not given in full), for which the GI50 was 27.3 µM and the TGI turned out to be 66.2 µM.

Take `COC(=O)C1=C(C)NC(C)=C(C(=O)OCCCN2CCC(c3ccccc3)(c3ccccc3)CC2)C1c1cccc([N+](=O)[O-])c1` (stereo not given): the TGI stood at 7.34 µM.

`N=Nc1c(OC(=O)Nc2cccc(Cl)c2)[nH]c2ccccc12` registered a TGI of 24.6 µM.

Take `Fc1cc2[nH]ncc2c2c3c(c(-c4cn[nH]c4)nc12)CCCC3`: the GI50 is 1.21 µM and the TGI was more than 27.8 µM.

On to `C=C1C(=O)O[C@H]2[C@H]1CC/C(COC(=O)c1c[nH]c3ccccc13)=C\CC[C@@]1(C)O[C@@H]21`, for which the GI50 was 0.28 µM and the TGI is 0.736 µM.

On to `CCN1CCN(c2nc(C)cc(N(CCNc3ccnc4cc(Cl)ccc34)Cc3ccc4c(c3)OCO4)n2)CC1`, for which the GI50 is 1.66 µM and the TGI came to 3.16 µM.

With `CCN(CC)c1ccc(-c2cc(-c3cc(OC)c(OC)c(OC)c3)nc(N3CCOCC3)c2C#N)cc1`, the GI50 was 15.3 µM and the TGI is more than 100 µM.

Compound `C=C(Br)C(C)(Br)CCC(Br)C(C)(C)Cl` (stereo not given) had a TGI of 32.7 µM.

With `O=C(CCc1nnc2sc(-c3ccc(Cl)cc3Cl)nn12)c1nc2ncccc2[nH]1`, the GI50 is 2.53 µM and the TGI was 5.16 µM.

For the compound `NS(=O)(=O)c1cc(Br)c(N=Nc2ccc(O)c3ncccc23)c(Br)c1`, the TGI was more than 100 µM.

In turn, `OCc1ccc(-c2ccc(-c3ccc(CO)s3)o2)s1` came in with a TGI of 0.171 µM.

For `O=C(Nc1ccc(Cl)cc1)c1cccc(NC2=C(Cl)C(=O)N(Cc3ccccc3)C2=O)c1`, the GI50 is 14.3 µM and the TGI came out at 30.7 µM.

As for `Cc1cc(/C=C/c2ccc3cc(N(C)C)ccc3[n+]2C)c(C)n1-c1ccccc1`, the GI50 is 0.301 µM and the TGI amounted to 2.34 µM.

Turning to `CC[C@H](Nc1ncnc2nc[nH]c12)c1oc2ccccc2c(=O)c1-c1cccc(F)c1`, the GI50 was 19.5 µM and the TGI came to 95.6 µM.

On to `COc1cc(NCc2ccc3oc(=O)c(-c4ccccc4)nc3c2)cc(OC)c1OC`, for which the TGI was more than 10 µM.
